Here are results for one substance from patent publication US20110256147A1, “DIAGNOSTIC AND TREATMENT METHODS FOR CANCER BASED ON IMMUNE INHIBITORS” (THE JOHNS HOPKINS UNIVERSITY, priority 2008, published 2011).

This assay has as its system CD1d-mediated activation of NKT cells. The experiment in a line: CD1d-mediated activation of a panel of NKT cell hybridomas by pretreated LCD1dwt cells, IL-2 ELISA. The conditions noted are these: LCD1dwt cells treated 4 h; DN32.D3, N37-1A12, N38-3C3. It is filed as cell-based, mouse. Here is the method:
FIG. 2. […] LCD1dwt cells were treated with 1 ml media containing 5% FBS, FBS, human AB serum or serum from the indicated patients for 3-4 h, washed extensively and then co-cultured with N37-1A12 and N38-3C3 NKT cell hybridomas. IL-2 was measured by standard cytokine ELISA, and data is shown as percent control, normalized to cells treated with culture media as 100% or the maximum level of stimulation.
FIG. 4. Treatment with ovarian cancer associated ascites has no effect on HLA-A2 mediated antigen presentation. […] IFN-γ released was measured by ELISA. […] NKT cell recognition of CD1d was assessed by measuring IL-2 production in the supernatants by ELISA.
FIG. 5. […] NKT cell recognition of CD1d1 was assessed by measuring IL-2 production in the supernatants by ELISA. […]
FIG. 6. […] IL-2 was measured, as an indication of NKT cell activation, by standard cytokine ELISA. […] NKT cell recognition of CD was assessed by measuring IL-2 production in the supernatants by ELISA. […]
FIG. 7. […] (A) IL-2 was measured, or GM-CSF (B) as an indication of NKT cell activation, by standard cytokine ELISA. […] The extracted lipids were analyzed by thin-layer chromatography (TLC) (HPTLC Silica Gel 60; Merck, Darmstadt, Germany) with chloroform-methanol-0.25% aqueous KCl (60:35:8) as running solvent. Gangliosides were detected with a resorcinol—HCl Cu2+ reagent. […]
On the technique in general: ELISA stands for enzyme-linked immunosorbent assay.

As for GT1b, the “CD1d-mediated activation of NKT cells, increasing doses of ganglioside” value is listed as “did not inhibit”.
